Tests used:
[1] = target: human orexin 2 receptor (Homo sapiens (Human), UniProt O43614); assay: Human orexin 2 receptor radioligand binding; details: human orexin 2 receptor; averages of 2-20 runs; read-out: hOX2 Ki
How it was run: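 Ki derived from one-site competition IC50 using predetermined Kd of [3H]-EMPA, triplicate points, 2-20 runs averaged. Binding done on homogenized HEK293 cells stably expressing human orexin 2 receptor, DMSO ≤0.1%, with 10 μM almorexant defining nonspecific binding; filtered, washed, scintillation counted.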

[2] = target: human orexin 1 receptor (Homo sapiens, UniProt O43613); assay: Human orexin 1 receptor radioligand binding; details: human orexin 1 receptor; averages of 2-20 runs; read-out: hOX1 Ki
How it was run: (§1)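 Ki values derive from one-site competition IC50s corrected with the radioligand's predetermined Kd, triplicates per run, averaged over 2-20 runs. Cell homogenates (rat or human OX1R) compete against [^3H]-thiazolyl-oxadiazolyl-pyrrolidine methanone in PBS; 10 μM almorexant sets nonspecific binding; scintillation counting after washing.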

[3] = target: rat orexin 1 receptor (Rattus norvegicus, UniProt P56718); assay: Rat orexin 1 receptor radioligand binding; details: rat orexin 1 receptor; averages of 2-20 runs; read-out: rOX1 Ki
How it was run: as §1

Chain of human orexin 2 receptor (O43614 whole entry): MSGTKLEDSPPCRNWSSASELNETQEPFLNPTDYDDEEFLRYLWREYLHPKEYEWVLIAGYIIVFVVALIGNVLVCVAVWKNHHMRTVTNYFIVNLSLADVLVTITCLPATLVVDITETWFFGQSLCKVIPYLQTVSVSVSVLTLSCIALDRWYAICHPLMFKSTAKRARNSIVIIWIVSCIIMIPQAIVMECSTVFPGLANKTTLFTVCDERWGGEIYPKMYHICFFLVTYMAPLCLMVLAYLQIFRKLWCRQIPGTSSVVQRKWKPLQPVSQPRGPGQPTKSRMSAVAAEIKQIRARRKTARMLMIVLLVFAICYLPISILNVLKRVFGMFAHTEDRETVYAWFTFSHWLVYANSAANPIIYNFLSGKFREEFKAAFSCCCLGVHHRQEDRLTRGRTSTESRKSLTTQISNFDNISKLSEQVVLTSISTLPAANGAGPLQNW

SMILES | Ki [1] [µM] | Ki [2] [µM] | Ki [3] [µM]
O=C(c1c(F)cccc1-c1ncccn1)N1C[C@@H]2CC[C@H]1[C@H](Oc1ccc(C(F)(F)F)cn1)C2 [Example 261, (2-fluoro-6-(pyrimidin-2-yl)phenyl)((1S,4R,6R)-6-((5-(trifluoromethyl)pyridin-2-yl)oxy)-2-azabicyclo[2.2.2]octan-2-yl)methanone] | 0.4 | 0.009 | 0.021
O=C(c1cccc(F)c1-c1ncc(F)cn1)N1C[C@@H]2CC[C@H]1[C@H](Oc1ccc(C(F)(F)F)cn1)C2 [Example 263, (3-fluoro-2-(5-fluoropyrimidin-2-yl)phenyl)((1S,4R,6R)-6-((5-(trifluoromethyl)pyridin-2-yl)oxy)-2-azabicyclo[2.2.2]octan-2-yl)methanone] | 1.1 | 0.009 | 0.011
Cc1cnc(C(=O)N2C[C@@H]3CC[C@H]2[C@H](Oc2ccc(C(F)(F)F)cn2)C3)c(-c2ncccn2)c1 [Example 264, (5-methyl-3-(pyrimidin-2-yl)pyridin-2-yl)((1S,4R,6R)-6-((5-(trifluoromethyl)pyridin-2-yl)oxy)-2-azabicyclo[2.2.2]octan-2-yl)methanone] | > 10 | 0.016 | 0.01
Cc1ccc(-c2ncccn2)c(C(=O)N2C[C@@H]3CC[C@H]2[C@H](Oc2ccc(C(F)(F)F)cn2)C3)n1 [Example 265, (6-methyl-3-(pyrimidin-2-yl)pyridin-2-yl)((1S,4R,6R)-6-((5-(trifluoromethyl)pyridin-2-yl)oxy)-2-azabicyclo[2.2.2]octan-2-yl)methanone] | 0.306 | 0.019 | 0.014
O=C(c1cccc(F)c1-c1ncccn1)N1C[C@@H]2CC[C@H]1[C@H](Oc1ncc(C(F)(F)F)cc1F)C2 [Example 266, (3-fluoro-2-(pyrimidin-2-yl)phenyl)((1S,4R,6R)-6-((3-fluoro-5-(trifluoromethyl)pyridin-2-yl)oxy)-2-azabicyclo[2.2.2]octan-2-yl)methanone] | 0.654 | 0.011 | 0.011
Cc1ccc(O[C@@H]2C[C@H]3CC[C@@H]2N(C(=O)c2cccc(F)c2-c2ncccn2)C3)nc1 [Example 267, (3-fluoro-2-(pyrimidin-2-yl)phenyl)((1S,4R,6R)-6-((5-methylpyridin-2-yl)oxy)-2-azabicyclo[2.2.2]octan-2-yl)methanone] | 1.1 | 0.019 | 0.026
O=C(c1ccccc1-n1nccn1)N1C[C@@H]2CC[C@H]1[C@H](Oc1ccc(Br)cn1)C2 [Example 268, (2-(2H-1,2,3-triazol-2-yl)phenyl)((1S,4R,6R)-6-((5-bromopyridin-2-yl)oxy)-2-azabicyclo[2.2.2]octan-2-yl)methanone] | 0.2 | 0.004 | 0.005
O=C(c1cccc(F)c1-c1ncccn1)N1C[C@@H]2CC[C@H]1[C@H](Oc1ccc(Br)cn1)C2 [Example 269, ((1S,4R,6R)-6-((5-bromopyridin-2-yl)oxy)-2-azabicyclo[2.2.2]octan-2-yl)(3-fluoro-2-(pyrimidin-2-yl)phenyl)methanone] | 0.363 | 0.005 | 0.004
O=C(c1ccccc1-n1nccn1)N1C[C@@H]2CC[C@H]1[C@H](Oc1ccc(Cl)cn1)C2 [Example 270, (2-(2H-1,2,3-triazol-2-yl)phenyl)((1S,4R,6R)-6-((5-chloropyridin-2-yl)oxy)-2-azabicyclo[2.2.2]octan-2-yl)methanone] | 0.2 | 0.003 | 0.004
O=C(c1cccc(F)c1-c1ncccn1)N1C[C@@H]2CC[C@H]1[C@H](Oc1ccc(Cl)cn1)C2 [Example 271, ((1S,4R,6R)-6-((5-chloropyridin-2-yl)oxy)-2-azabicyclo[2.2.2]octan-2-yl)(3-fluoro-2-(pyrimidin-2-yl)phenyl)methanone] | 0.452 | 0.008 | 0.007
O=C(c1ccccc1-c1ncc(F)cn1)N1C[C@@H]2CC[C@H]1[C@H](Oc1cnc(C(F)(F)F)cn1)C2 [Example 272, (2-(5-fluoropyrimidin-2-yl)phenyl)((1S,4R,6R)-6-((5-(trifluoromethyl)pyrazin-2-yl)oxy)-2-azabicyclo[2.2.2]octan-2-yl)methanone] | 1.4 | 0.011 | 0.023
O=C(c1cccc(F)c1-c1ncc(F)cn1)N1C[C@@H]2CC[C@H]1[C@H](Oc1cnc(C(F)(F)F)cn1)C2 [Example 273, (3-fluoro-2-(5-fluoropyrimidin-2-yl)phenyl)((1S,4R,6R)-6-((5-(trifluoromethyl)pyrazin-2-yl)oxy)-2-azabicyclo[2.2.2]octan-2-yl)methanone] | 3.8 | 0.016 | 0.044
O=C(c1ccc(F)cc1-c1ncccn1)N1C[C@@H]2CC[C@H]1[C@H](Nc1cnc(C(F)(F)F)cn1)C2 [Example 277, (4-fluoro-2-(pyrimidin-2-yl)phenyl)((1S,4R,6R)-6-((5-(trifluoromethyl)pyrazin-2-yl)amino)-2-azabicyclo[2.2.2]octan-2-yl)methanone] | 0.998 | 0.015 | 0.017
O=C(c1cc(F)ccc1-c1ncccn1)N1C[C@@H]2CC[C@H]1[C@H](Nc1cnc(C(F)(F)F)cn1)C2 [Example 278, (5-fluoro-2-(pyrimidin-2-yl)phenyl)((1S,4R,6R)-6-((5-(trifluoromethyl)pyrazin-2-yl)amino)-2-azabicyclo[2.2.2]octan-2-yl)methanone] | 0.243 | 0.007 | 0.014
O=C(c1c(F)cccc1-c1ncccn1)N1C[C@@H]2CC[C@H]1[C@H](Nc1cnc(C(F)(F)F)cn1)C2 [Example 279, (2-fluoro-6-(pyrimidin-2-yl)phenyl)((1S,4R,6R)-6-((5-(trifluoromethyl)pyrazin-2-yl)amino)-2-azabicyclo[2.2.2]octan-2-yl)methanone] | 0.177 | 0.013 | 0.011
O=C(c1ccccc1-c1ncccn1)N1C[C@@H]2CC[C@H]1[C@H](Nc1cnc(C(F)(F)F)cn1)C2 [Example 280, (2-(pyrimidin-2-yl)phenyl)((1S,4R,6R)-6-((5-(trifluoromethyl)pyrazin-2-yl)amino)-2-azabicyclo[2.2.2]octan-2-yl)methanone] | 0.189 | 0.004 | 0.007
O=C(c1cccc(F)c1-c1ncccn1)N1C[C@@H]2CC[C@H]1[C@H](Oc1ncc(C(F)(F)F)cc1Cl)C2 [Example 281, ((1S,4R,6R)-6-((3-chloro-5-(trifluoromethyl)pyridin-2-yl)oxy)-2-azabicyclo[2.2.2]octan-2-yl)(3-fluoro-2-(pyrimidin-2-yl)phenyl)methanone] | 0.336 | 0.019 | 0.005
Cc1cnc(C(=O)N2C[C@@H]3CC[C@H]2[C@H](Oc2cnc(C(F)(F)F)cn2)C3)c(-c2ncccn2)c1 [Example 282, (5-methyl-3-(pyrimidin-2-yl)pyridin-2-yl)((1S,4R,6R)-6-((5-(trifluoromethyl)pyrazin-2-yl)oxy)-2-azabicyclo[2.2.2]octan-2-yl)methanone] | > 10 | 0.065 | 0.081
Cc1cnc(C(=O)N2C[C@@H]3CC[C@H]2[C@H](Oc2ncc(C(F)(F)F)cc2F)C3)c(-c2ncccn2)c1 [Example 283, ((1S,4R,6R)-6-((3-fluoro-5-(trifluoromethyl)pyridin-2-yl)oxy)-2-azabicyclo[2.2.2]octan-2-yl)(5-methyl-3-(pyrimidin-2-yl)pyridin-2-yl)methanone] | > 10 | 0.027 | 0.021
O=C(c1cccc(F)c1-c1ncccn1)N1C[C@H]2C[C@@H](Oc3ncc(Cl)cn3)[C@@H]1C2 [Example 284, ((1S,4R,6R)-6-((5-chloropyrimidin-2-yl)oxy)-2-azabicyclo[2.2.1]heptan-2-yl)(3-fluoro-2-(pyrimidin-2-yl)phenyl)methanone] | 5.6 | 0.047 | 0.045
Cc1ccc(-c2ncccn2)c(C(=O)N2C[C@H]3C[C@@H](Oc4ncc(Cl)cn4)[C@@H]2C3)n1 [Example 285, ((1S,4R,6R)-6-((5-chloropyrimidin-2-yl)oxy)-2-azabicyclo[2.2.1]heptan-2-yl)(6-methyl-3-(pyrimidin-2-yl)pyridin-2-yl)methanone] | 6 | 0.215 | 0.117
O=C(c1ccccc1-n1nccn1)N1C[C@H]2C[C@@H](Oc3ccc4cccnc4n3)[C@@H]1C2 [Example 287, ((1S,4R,6R)-6-((1,8-naphthyridin-2-yl)oxy)-2-azabicyclo[2.2.1]heptan-2-yl)(2-(2H-1,2,3-triazol-2-yl)phenyl)methanone] | 2.7 | 0.226 | 0.155
Cc1cnc(C(=O)N2C[C@H]3C[C@@H](Oc4ccc(C(F)F)cn4)[C@@H]2C3)c(-c2ncccn2)c1 [Example 288, ((1S,4R,6R)-6-((5-(difluoromethyl)pyridin-2-yl)oxy)-2-azabicyclo[2.2.1]heptan-2-yl)(5-methyl-3-(pyrimidin-2-yl)pyridin-2-yl)methanone] | 5.1 | 0.039 | 0.029
Cc1cnc(-c2ncccn2)c(C(=O)N2C[C@H]3C[C@@H](Oc4ccc(C(F)(F)F)cn4)[C@@H]2C3)c1 [Example 290, (5-methyl-2-(pyrimidin-2-yl)pyridin-3-yl)((1S,4R,6R)-6-((5-(trifluoromethyl)pyridin-2-yl)oxy)-2-azabicyclo[2.2.1]heptan-2-yl)methanone] | > 10 | 0.188 | 0.097

— patent US9611277B2 (Janssen Pharmaceutica NV, priority 2013, dated 2017)
